Data as given in paper PMC9400670, “Establishing the selective phospholipid membrane coordination, permeation and lysis properties for a series of ‘druggable’ supramolecular self-associating antimicrobial amphiphiles” (Chemical Science, 2022).

Test system: PC, PG and PE : PG mixed nanodiscs
Assay: Phospholipid nanodisc 1H NMR CPMG coordination assay, comparison across the three nanodiscs
Assay type: binding
Conditions: SSA 0.10 mM, in words
Source text: Finally, to establish how any single SSA structural variation affects the coordination of an individual salt component to the surface of a phospholipid membrane, the binding of the anionic and cationic components of SSAs 5–12 with nanodiscs comprised of PC, PG or the PE : PG mix (Table 2) was studied. Nanodiscs were synthesised from synthetic vesicles of the relevant phospholipid composition. For full synthetic procedures and nanodisc characterisation please see ESI (Section 13). ^†[34,35]
Styrene-maleic acid (SMA) nanodiscs are small biomimetic scaffolds with a hydrodynamic diameter ≈ 10 nm. […]
Fluorescence polarisation: Lipid films were resuspended in Buffer (150 mM KCl, 10 mM HEPES, pH 7.4, 2 mM EGTA) and subjected to 9 freeze-thaw cycles in liquid nitrogen and extruded 20 times through a 200 nm polycarbonate membrane. […]
Nanodisc preparation: Lipid films were resuspended in Buffer (20 mM NaCl, 20 mM NaH 2PO4, pH 7.4) and sonicated for 1 hour, at a 5:1 ratio, SMA was added and incubated at 37 °C for 1 hour. Dialysed overnight in 5 L of the same buffer in 10 KDa cut-off dialysis tubing, concentrated, and underwent gel filtration size exclusion chromatography on a Superdex 200 10/300 GL column (GE Healthcare) in the same buffer, whilst monitoring absorbance at 260 nm. Nanodisc quantification carried out via monitoring of absorbance at 260 nm using a calibration curve.2 […]

`Cc1ccc2nc(NC(=O)NCS(=O)(=O)O)sc2c1` [SSA 7] was tested, and the “interaction of the anionic component of SSA with phospholipid nanodiscs” value was “not to interact with any great significance to any of the phospholipid nanodiscs tested”.
`Cc1ccc2nc(-c3ccc(NC(=S)NCS(=O)(=O)O)cc3)sc2c1` [SSA 12] was tested, and the “interaction of the anionic component of SSA with phospholipid nanodiscs” value was “greatest binding affinity for all three nanodiscs of the SSAs tested”.
